Target: T1, TrkA (tropomyosin 3-TrkA fusion protein, TPM3-NTRK1) (Homo sapiens, UniProt P04629)
T1 construct: tropomyosin 3-TrkA fusion protein (TPM3-NTRK1), endogenous in KM12 cells
Assay: competition with [18F]TRACK radiotracer uptake in intact KM12 cells
Type: cell-based

T1 sequence (P04629 405-796 limits assumed): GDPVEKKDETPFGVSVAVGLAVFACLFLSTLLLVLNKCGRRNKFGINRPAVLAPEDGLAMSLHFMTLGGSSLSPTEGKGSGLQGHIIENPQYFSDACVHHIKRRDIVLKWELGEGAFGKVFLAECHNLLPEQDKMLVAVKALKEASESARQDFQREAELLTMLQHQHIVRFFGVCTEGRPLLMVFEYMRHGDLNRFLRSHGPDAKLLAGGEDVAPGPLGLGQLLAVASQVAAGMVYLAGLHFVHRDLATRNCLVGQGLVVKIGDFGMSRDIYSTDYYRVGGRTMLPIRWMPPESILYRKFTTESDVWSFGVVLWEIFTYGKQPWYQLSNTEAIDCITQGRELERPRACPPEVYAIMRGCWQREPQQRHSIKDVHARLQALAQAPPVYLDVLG
T1 sequence (P06753 2-285 partner): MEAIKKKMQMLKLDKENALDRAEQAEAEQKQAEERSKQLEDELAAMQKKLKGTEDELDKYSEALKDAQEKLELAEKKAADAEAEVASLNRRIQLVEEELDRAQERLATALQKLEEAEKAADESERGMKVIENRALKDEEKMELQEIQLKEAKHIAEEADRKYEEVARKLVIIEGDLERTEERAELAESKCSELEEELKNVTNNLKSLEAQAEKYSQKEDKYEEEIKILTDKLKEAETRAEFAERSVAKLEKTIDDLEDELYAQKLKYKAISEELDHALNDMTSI

IC50: 29.4 ± 9.4 nM
SMILES: O=C(Nc1ccc(F)c(F)c1)c1cnc2ccc(N3CCC[C@@H]3c3cccc(F)c3)nn12 [TRACK]

Reference: PMC9339071, “Toward in vivo proof of binding of ^18F-labeled inhibitor [^18F]TRACK to peripheral tropomyosin receptor kinases” (EJNMMI Research, 2022)
